Several values for one entry are separate records, joined by “and”; a condition that tells them apart may be missing. Identical values can stand only once.
System: pigmented rabbits (Chinchilla Bastard)
Assay: IOP study in pigmented rabbits after single eye drop
Type: in vivo, rabbit
Procedure: Five 3–5 months old albino (New Zealand White, all females) and five 3–6 months old pigmented rabbits (Chinchilla Bastard, 1 male and 4 females) were purchased from Charles River Laboratories, UK and Germany, respectively. Prior to the experiments, the rabbits were habituated to handling, and the baseline values of IOP were measured. During the experiments, rabbits weighed 2.4–4.0 kg.
First, stock solutions of CAIs (250 mg/mL) in dimethyl sulfoxide (Sigma-Aldrich, Germany) were prepared. These stock solutions were diluted with PBS (pH 7.4) to obtain 1 mg/mL (0.1%) or 10 mg/mL (1%) solutions.
The CAI solutions were tested in albino rabbits (eye drops of 0.1, and 0.5 or 1.0%) and in pigmented rabbits (0.5 or 1.0%). The novel CAI concentrations in solutions were determined based on the drug solubility with the aim to load the highest possible drug concentration to the single eye drop.
Baseline IOP of pigmented rabbits was raised with two intravitreal triamcinolone acetonide injections (Triesence 40 mg/mL, Novartis Finland Ltd.) with 1 week interval to each eye. This method[25],[26] may induce ocular hypertension even up to 60 days in rabbits.[25]
The rabbits were anesthetized with 0.4 mg/kg, s.c. medetomidine (Domitor vet 1 mg/mL, Orion Pharma, Espoo, Finland) and 20 mg/kg s.c. ketamine (Ketaminol vet 50 mg/mL, Pfizer Oy Animal Health, Espoo, Finland). Mydriasis was induced with topical tropicamide eyedrops (Oftan Tropicamid 5 mg/mL, Santen Pharmaceutical Co., Ltd., Tampere, Finland) and the ocular surface was anesthetized with oxybuprocaine eye drop (Oftan Obucain 4 mg/mL, Santen Pharmaceutical Co., Ltd., Tampere, Finland). Thereafter, intravitreal injection of triamcinolone acetonide (100 μL) was given with a 31G needle and syringe. After injection, the eyes were moisturized with carbomer gel (Viscotears 2 mg/g, Dr. Gerhard Mann chem.-pharm. Fabrik GmbH, Berlin, Germany) and the anesthesia was antagonized with 1 mg/kg atipamezole s.c. (Antisedan vet 5 mg/mL, Orion Pharma, Espoo, Finland).
After the second injection, IOP was allowed to settle for 10 days before the experiments were performed. […] Induction of ocular hypertension is presented in Appendix Figure 3. The IOP-lowering effects of the molecules were investigated sequentially, each test initiating once baseline IOP levels was attained.
The IOP levels in the rabbits were measured with a tonometer (Tonometer Pro, Icare Finland Ltd.). After baseline IOP measurements, a single eye drop (25 μL) was applied to the left eye, whereas the right eye was not treated. After eye drop instillation, the eyelids were kept open manually for 1 min. The IOP was measured from both eyes of the rabbits at 0.5, 1, 2, 3, 4, 5, 6, 7, and 8 h after eye drop instillation. In the case of the pigmented rabbits, the measurements were continued until 10 h postinstillation, and further until the IOP had returned to the normal baseline.
The CAIs were tested in the same rabbits to minimize interindividual data variation. Washout periods of at least 3 days were used between instillation of different compounds. The experiments started always at 8 a.m. to eliminate bias due to diurnal IOP fluctuation. At each time point, the pressure was measured three times with the same eye, and the average values were calculated and used in data analysis.

In the case of `C/C(=N\Nc1ccc(S(N)(=O)=O)cc1)c1cccnc1` [A01], the “duration of IOP reduction” value (hypertensive pigmented rabbits, single eye drop) is reported as 14 days, the “duration of IOP decrease” value (pigmented rabbits, single eye drop) is reported as 2 weeks and the “ratio (AUCpigm/AUCalbino) of IOP response” value (pigmented vs albino rabbits) is reported as 85 and 85.5.

Reference: paper PMC11795524, “Melanin-Binding-Based Discovery of Topically Instilled Carbonic Anhydrase Inhibitors for Targeted Delivery and Prolonged Action in the Eye” (Molecular Pharmaceutics, 2025)
